Experimental data published in US20260258035A1, “FIVE-MEMBERED AND SIX-MEMBERED NITROGEN-CONTAINING COMPOUND, AND INTERMEDIATE, PREPARATION METHOD AND USE THEREOF” (HANGZHOU SYNRX THERAPEUTICS BIOMEDICAL TECHNOLOGY CO., LTD., priority 2022, published 2026).
Like-named read-outs stand apart in the source and are kept apart here.

Columns and labels:
PARG = PARG (Homo sapiens, UniProt Q86W56); experiment: Biochemical assay (PARG, TFMU-ADPr substrate)
HCC1806 = experiment: Cell viability assay (CellTiter-Glo); format: cell-based, Human; settings: HCC1806, 7 days, CellTiter-Glo, read-out: IC50 (nM) in cell viability assay
[1] = 4 nM PARG, 66.2 uM TFMU-ADPr, 3 min at room temperature

PARG, sequence (Q86W56 whole entry): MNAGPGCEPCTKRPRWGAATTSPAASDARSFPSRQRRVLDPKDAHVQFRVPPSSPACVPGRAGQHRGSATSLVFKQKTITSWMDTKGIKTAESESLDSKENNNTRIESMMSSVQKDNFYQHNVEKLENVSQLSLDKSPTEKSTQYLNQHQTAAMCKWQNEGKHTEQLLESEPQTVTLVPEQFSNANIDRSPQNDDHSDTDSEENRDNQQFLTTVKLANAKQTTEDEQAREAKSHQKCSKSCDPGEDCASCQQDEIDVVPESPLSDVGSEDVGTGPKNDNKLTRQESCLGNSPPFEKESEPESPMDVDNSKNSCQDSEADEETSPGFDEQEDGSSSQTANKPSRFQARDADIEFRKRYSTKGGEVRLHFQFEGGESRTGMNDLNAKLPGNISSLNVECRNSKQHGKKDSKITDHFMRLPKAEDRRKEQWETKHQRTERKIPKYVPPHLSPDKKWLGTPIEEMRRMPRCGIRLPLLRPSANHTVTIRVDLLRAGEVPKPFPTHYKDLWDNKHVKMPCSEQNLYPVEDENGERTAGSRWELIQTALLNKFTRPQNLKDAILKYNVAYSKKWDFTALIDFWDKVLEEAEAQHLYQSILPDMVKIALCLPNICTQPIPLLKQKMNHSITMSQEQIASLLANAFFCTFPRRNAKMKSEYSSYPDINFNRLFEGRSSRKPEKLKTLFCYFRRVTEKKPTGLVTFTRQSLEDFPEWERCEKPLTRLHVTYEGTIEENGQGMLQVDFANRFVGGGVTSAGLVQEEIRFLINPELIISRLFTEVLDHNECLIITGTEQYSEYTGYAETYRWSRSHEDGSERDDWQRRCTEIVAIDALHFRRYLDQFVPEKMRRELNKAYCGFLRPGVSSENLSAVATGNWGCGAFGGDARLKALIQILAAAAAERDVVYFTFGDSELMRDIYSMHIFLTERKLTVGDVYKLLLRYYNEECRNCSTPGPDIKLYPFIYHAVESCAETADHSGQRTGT

| SMILES | IC50 (PARG; PARG, TFMU-ADPr substrate) [nM] | IC50 (HCC1806; Homo sapiens, HCC1806, 168 h) [nM] | IC50 (PARG; [1]) [nM] | IC50 (HCC1806) [nM] |
| --- | --- | --- | --- | --- |
| COc1ccc(C(=O)/C=C/C(=O)N2CCN(c3cc(S(=O)(=O)NC4CC4)cn4c(-c5nnc(C(F)(F)F)s5)ncc34)CC2)cc1 [Example 243, (E)-N-cyclopropyl-8-(4-(4-(4-methoxyphenyl)-4-oxobut-2-enoyl)piperazin-1-yl)-3-(5-(trifluoromethyl)-1,3,4-thiadiazol-2-yl)imidazo[1,5-a]pyridine-6-sulfonamide] | 871 | 200 | – | – |
| CC1(C(=O)N2CCN(c3cc(S(=O)(=O)NC4(C#N)CC4)cn4c(-c5nnc(C(F)(F)F)s5)ncc34)CC2)COC1 [Example 299, N-(1-cyanocyclopropyl)-8-(4-(3-methyloxetane-3-carbonyl)piperazin-1-yl)-3-(5-(trifluoromethyl)-1,3,4-thiadiazol-2-yl)imidazo[1,5-a]pyridine-6-sulfonamide] | 24 | 1030 | – | – |
| CC(=O)N1[C@@H](C)CN(c2cc(S(=O)(=O)NC3(C)COC3)cn3c(-c4nnc(C(F)F)s4)ncc23)C[C@@H]1C [Example 401, 8-((3S,5S)-4-acetyl-3,5-dimethylpiperazin-1-yl)-3-(5-(difluoromethyl)-1,3,4-thiadiazol-2-yl)-N-(3-methyloxetan-3-yl)imidazo[1,5-a]pyridine-6-sulfonamide] | 158 | 2800 | – | – |
| CC(C)C(=O)N1CCN(c2cc(S(=O)(=O)NC3(C#N)CC3)cn3c(-c4nnc(C(F)(F)F)s4)ncc23)C[C@H]1C [Example 205, (R)-N-(1-cyanocyclopropyl)-8-(4-isobutyryl-3-methylpiperazin-1-yl)-3-(5-(trifluoromethyl)-1,3,4-thiadiazol-2-yl)imidazo[1,5-a]pyridine-6-sulfonamide] | 22.9 | 699 | – | – |
| CC1(NS(=O)(=O)c2cc(N3CCNCC3)c3cnc(-c4nnc(C(F)F)s4)n3c2)CC1 [Example 341, 3-(5-(difluoromethyl)-1,3,4-thiadiazol-2-yl)-N-(1-methylcyclopropyl)-8-(piperazin-1-yl)imidazo[1,5-a]pyridine-6-sulfonamide] | 2.42 | 139 | – | – |
| C[C@@H]1CN(c2cc(S(=O)(=O)NC3(C#N)CC3)cn3c(-c4nnc(C(F)(F)F)s4)ncc23)CCN1C(=O)C1CCO1 (stereo partly drawn) [Example 302, N-(1-cyanocyclopropyl)-8-((3R)-3-methyl-4-(oxetane-2-carbonyl)piperazin-1-yl)-3-(5-(trifluoromethyl)-1,3,4-thiadiazol-2-yl)imidazo[1,5-a]pyridine-6-sulfonamide] | 15.4 | 329 | – | – |
| COCC1CN(c2cc(S(=O)(=O)NC3(C)COC3)cn3c(-c4nnc(C(F)F)s4)ncc23)CCN1 (centres unmarked) [Example 357, 3-(5-(difluoromethyl)-1,3,4-thiadiazol-2-yl)-8-(3-(methoxymethyl)piperazin-1-yl)-N-(3-methyloxetan-3-yl)imidazo[1,5-a]pyridine-6-sulfonamide] | 8.31 | 208 | – | – |
| CC(C)(O)C1CCN(c2cc(S(=O)(=O)NC3(CF)CC3)cn3c(-c4nnc(C(F)F)s4)nnc23)CC1 [Example 109, 3-(5-(difluoromethyl)-1,3,4-thiadiazol-2-yl)-N-(1-(fluoromethyl)cyclopropyl)-8-(4-(2-hydroxypropan-2-yl)piperidin-1-yl)-[1,2,4]triazolo[4,3-a]pyridine-6-sulfonamide] | 30.5 | 5000 to 30000 | < 100 | 7000 |
| CN(C)C1(C(=O)N2CCN(c3cc(S(=O)(=O)NC4(C#N)CC4)cn4c(-c5nnc(C(F)(F)F)s5)ncc34)CC2)CC1 [Example 266, N-(1-cyanocyclopropyl)-8-(4-(1-(dimethylamino)cyclopropane-1-carbonyl)piperazin-1-yl)-3-(5-(trifluoromethyl)-1,3,4-thiadiazol-2-yl)imidazo[1,5-a]pyridine-6-sulfonamide] | 132 | 370 | – | – |
| COCC1CN(c2cc(S(=O)(=O)NC3(C)COC3)cn3c(-c4nnc(C(F)F)s4)nc(Cl)c23)CCN1 (centres unmarked) [Example 127, 1-chloro-3-(5-(difluoromethyl)-1,3,4-thiadiazol-2-yl)-8-(3-(methoxymethyl)piperazin-1-yl)-N-(3-methyloxetan-3-yl)imidazo[1,5-a]pyridine-6-sulfonamide] | 1.01 | 95 | – | – |
| C[C@@H]1CN(c2cc(S(=O)(=O)NC3(C#N)CC3)cn3c(-c4nnc(C(F)F)s4)ncc23)CCN1C(CO)C(F)(F)F (stereo partly drawn) [Example 144, N-(1-cyanocyclopropyl)-3-(5-(difluoromethyl)-1,3,4-thiadiazol-2-yl)-8-((3R)-3-methyl-4-(1,1,1-trifluoro-3-hydroxypropan-2-yl)piperazin-1-yl)imidazo[1,5-a]pyridine-6-sulfonamide] | 263 | 5000 to 30000 | 100 to 500 | 7020 |
| N#CC1(NS(=O)(=O)c2cc(N3CCN(C(=O)CCC(=O)O)CC3)c3cnc(-c4nnc(C(F)(F)F)s4)n3c2)CC1 [Example 253, 4-(4-(6-(N-(1-cyanocyclopropyl)sulfamoyl)-3-(5-(trifluoromethyl)-1,3,4-thiadiazol-2-yl)imidazo[1,5-a]pyridin-8-yl)piperazin-1-yl)-4-oxobutanoic acid] | 57.5 | 1000 | – | – |
| N#CC1(NS(=O)(=O)c2cc(N3CCN(C(=O)C4(N)CC4)CC3)c3cnc(-c4nnc(C(F)(F)F)s4)n3c2)CC1 [Example 274, 8-(4-(1-aminocyclopropane-1-carbonyl)piperazin-1-yl)-N-(1-cyanocyclopropyl)-3-(5-(trifluoromethyl)-1,3,4-thiadiazol-2-yl)imidazo[1,5-a]pyridine-6-sulfonamide] | 41.7 | 700 | – | – |
| CC1(NS(=O)(=O)c2cc(N3CCN(C(=O)c4ccno4)CC3)c3cnc(-c4nnc(C(F)(F)F)s4)n3c2)CC1 [Example 329, 8-(4-(isoxazole-5-carbonyl)piperazin-1-yl)-N-(1-methylcyclopropyl)-3-(5-(trifluoromethyl)-1,3,4-thiadiazol-2-yl)imidazo[1,5-a]pyridine-6-sulfonamide] | 7.64 | 187 | – | – |
| C[C@H]1CN(c2cc(S(=O)(=O)NC3(CF)COC3)cn3c(-c4nnc(C(F)F)s4)ncc23)C[C@H](C)N1 [Example 359, 3-(5-(difluoromethyl)-1,3,4-thiadiazol-2-yl)-8-((3S,5S)-3,5-dimethylpiperazin-1-yl)-N-(3-(fluoromethyl)oxetan-3-yl)imidazo[1,5-a]pyridine-6-sulfonamide] | 1.44 | 47 | – | – |
| N#CC1(NS(=O)(=O)c2cc(N3CCC4=C(COC4=O)C3)c3cnc(-c4nnc(C(F)(F)F)s4)n3c2)CC1 [Example 220, N-(1-cyanocyclopropyl)-8-(1-oxo-1,4,6,7-tetrahydrofuro[3,4-c]pyridin-5(3H)-yl)-3-(5-(trifluoromethyl)-1,3,4-thiadiazol-2-yl)imidazo[1,5-a]pyridine-6-sulfonamide] | 57.5 | 664 | – | – |
| N#CC1(NS(=O)(=O)c2cc(N3CCC4(CC3)COC4)c3cnc(-c4nnc(C(F)(F)F)s4)n3c2)CC1 [Example 209, N-(1-cyanocyclopropyl)-8-(2-oxa-7-azaspiro[3.5]nonan-7-yl)-3-(5-(trifluoromethyl)-1,3,4-thiadiazol-2-yl)imidazo[1,5-a]pyridine-6-sulfonamide] | 60.3 | 765 | – | – |
